{
  "source": "patent US20010051618A1",
  "about": "(priority 2000, published 2001)",
  "key": {"[1]": {"system": "kainate receptor", "conditions": "rat; Narita et al. 1993; cited from earlier work"}, "[2]": {"system": "poriomaniac behavior of dog", "assay": "Night activity of a demented dog with poriomania, recorded by CCD camera (Example 5)", "type": "in vivo", "protocol": "A male Pomeranian of 11 years old was used. The dog was established to have been demented and to have suffered from poriomania. About 200 g of a canned feed for dogs (Maintenance Canned Beef available from Nippon Hills Colgate Company) per day was fed to this animal in two portions in the morning and evening. On the other hand, water was available ad libitum.\nThe experiment was conducted in the laboratory under controlled conditions of room temperature of about 22° C. The cage (150 cm×90 cm) was illuminated by infrared light and the activity of the experimental animal in the night was detected by a monochrome CCD camera. The traces of activity were recorded on a microcomputer every 10 minutes. The traces were recorded for 2 days before treatment, after the animal was maintained and acclimatized to the conditions, and the records were used as the pre-treatment data. The data recording started at about 18:00 and the activity was recorded for 800 minutes.\nThe migration time is the time of the migration of the animal during the experiment. The migration length is the distance of migration of the animal during the experiment. The start of poriomaniac behavior was defined as the start of migration came after the quiescent state of not less than 10 minutes and the end of the poriomaniac behavior was defined as the stop of migration which was confirmed to be maintained for […] 10 minutes. One incident of the poriomaniac behavior was defined as the behavior from the start to the end of the aforementioned migration. One episode means one incident of the poriomaniac behavior."}, "[3]": {"assay": "General symptoms in the similar dog experiment (Example 5)", "type": "in vivo", "conditions": "similar experiment with GABA"}, "[4]": {"system": "intentional motions of rats", "assay": "Forced swimming test, strokes by the forelimbs (Example 2)", "type": "in vivo, rat", "conditions": "0.5 mg/kg intraperitoneal, 30 minutes to 3 hours after administration, versus saline control, FIG. 2", "protocol": "A GABAB receptor agonist, SKF97541, was intraperitoneally administered to rats, which had been kept under the same conditions used in Example 1, in an amount of 0.5 mg/kg and these animals were put in water maintained at a temperature ranging from 35 to 37° C. after 30 minutes to 3 hours from the administration of the […]. […] The rats were forced to swim in the pool to determine the number of strokes by the forelimbs of these animals per 5 minutes. A group of these animals to which physiological saline had separately been administered was used as a control group."}, "[5]": {"system": "rat's running activity in the night", "assay": "Running-wheel activity in the night after intraperitoneal administration (Example 1)", "type": "in vivo", "conditions": "ip, rats", "protocol": "Rats (Wistar-Imamichi; 7-week-old) were kept in a cage equipped with a running wheel. The animals were kept under such lighting conditions that the lighting was initiated at 7:00 and it was stopped at 19:00, while the animals were allowed to freely eat diet and drink water. They were kept over 3 weeks without subjecting them to any treatment or they were not subjected to any treatment until they sufficiently habituated to the keeping environment or the cage.\nThese animals were treated by intraperitoneal administration of GABAB receptor agonist, SKF97541, in an amount of 1.0 mg/kg or 0.5 mg/kg at around 18:00. A group of these animals to which physiological saline had separately been administered was used as a control group. Regarding the quantity of running, the counts detected by a sensor equipped with a running wheel were inputted to a computer at intervals of 30 minutes to thus evaluate the accumulated counts in the night, which was defined to be the quantity of acts in the night. Thus, the relative rate of the accumulated count observed for the individual animal was calculated while the accumulated count observed for each animal prior to the treatment was assumed to be 1."}, "[6]": {"conditions": "150 mg powdered GABA in food at 18:00, post-treatment, 800 minutes recording"}},
  "data": [
    {"compound": "O=C1N=c2cc([N+](=O)[O-])c([N+](=O)[O-])cc2=NC1=O", "note": "[DNQX, 6,7-dinitroquinoxaline-2,3-dione]", "values": [
      {"measurement": "inhibition of running activity induced by kainate", "setting": "[1]", "value": "inhibited"}
    ]},
    {"compound": "NCCCC(=O)O", "note": "[GABA, γ-aminobutyric acid]", "values": [
      {"measurement": "change in each parameter compared to pre-treatment data", "setting": "[2]; 150 mg of GABA", "value": "significant decrease"},
      {"measurement": "mean duration time of each episode", "setting": "[2]; [6]", "value": 0.7, "unit": "min"},
      {"measurement": "migration length", "setting": "[2]; [6]", "value": 44.7, "unit": "cm"},
      {"measurement": "migration time", "setting": "[2]; [6]", "value": 1.4, "unit": "min"},
      {"measurement": "number of episodes", "setting": "[2]; [6]", "value": 2},
      {"measurement": "general symptoms", "setting": "[3]", "value": "no particular notable events were observed"}
    ]},
    {"compound": "CP(=O)(O)CCCN", "note": "[SKF97541, 3-aminopropyl (methyl) phosphinic acid]", "values": [
      {"measurement": "number of strokes by the forelimbs per 5 minutes", "setting": "[4]", "value": "not reduced"},
      {"measurement": "inhibition at 0.5 mg/kg", "setting": "[5]; 0.5 mg/kg intraperitoneal at around 18:00, FIG. 1, read-out: inhibitory effect on quantity of running activity in the night, relative to the control group", "value": "40 to 60", "unit": "%"},
      {"measurement": "inhibition at 1 mg/kg", "setting": "[5]; 1.0 mg/kg intraperitoneal at around 18:00, estimated, FIG. 1, read-out: inhibitory effect on quantity of running activity in the night, relative to the control group", "value": "~70", "unit": "%"}
    ]},
    {"compound": "C=C(C)[C@H]1CN[C@H](C(=O)O)[C@H]1CC(=O)O", "note": "[kainate]", "values": [
      {"measurement": "induction of running activity", "setting": "[1]", "value": "induced"}
    ]}
  ]
}
